Test results from US7161032B2, “Sulfonamide derivatives, insecticides for agricultural and horticultural use, and usage thereof” (Nihon Nohyaku Co., Ltd., priority 2002, dated 2007).

What was measured:
Format in all cases: in vivo
[1] = test system: Smaller Tea Tortrix (Adoxophyes sp.); assay: Insecticidal effect on smaller tea tortrix (Test Example 3): tea leaves immersed in 50 ppm liquid chemical; conditions: smaller tea tortrix (Adoxophyes sp.) larvae, 8 days after inoculation, 25° C., humidity 70%
Procedure, shortened: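 Tea leaves dipped about 30 seconds in 50 ppm compound preparation, air-dried, then infested with larvae and held at 25° C and 70% humidity. Dead and alive counted 8 days after inoculation; triplicate groups of 10 insects.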

[2] = test system: Common Cutworm (Spodoptera litura); assay: Insecticidal effect on common cutworm (Test Example 2): cabbage leaf piece immersed in 50 ppm liquid chemical; conditions: common cutworm (Spodoptera litura) second-instar larvae, 8 days after inoculation, 25° C.
Procedure, shortened: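 Cabbage leaf pieces (cv. Shikidori) dipped ~30 s in formulated compound at 50 ppm and air-dried. Second-instar larvae added, kept at 25° C. Dead and alive counted at 8 days to give % mortality, scored against a criterion scale; three groups of 10 insects.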

[3] = test system: Diamond Back Moth (Plutella xylostella); assay: Insecticidal effect on diamond back moth (Test Example 1): egg-bearing Chinese cabbage seedling immersed in 50 ppm liquid chemical
Procedure, shortened: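 Seedlings bearing 2-day-old eggs dipped about 30 s in 50 ppm formulated compound, air-dried, held at 25° C. Hatched larvae counted 6 days after immersion; mortality calculated and graded by criterion. Triplicate groups of 10 insects.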

Compound	Insecticidal effect (mortality grade), Test Example 3 [1]	Insecticidal effect (mortality grade), Test Example 2 [2]	Insecticidal effect (mortality grade), Test Example 1 [3]
CCSCCNS(=O)(=O)CC(C)(C)NC(=O)c1c(I)cccc1C(=O)Nc1ccc(C(F)(F)C(F)(F)F)cc1C [1-307]	A (Mortality 100%)	A (Mortality 100%)	A (Mortality 100%)
Cc1cc(C(F)(C(F)(F)F)C(F)(F)F)ccc1NC(=O)c1cccc(I)c1C(=O)NC(C)CS(=O)(=O)Nc1cccc(F)c1 (stereo not drawn) [1-109]	A (Mortality 100%)	E (Mortality less than 50%)	A (Mortality 100%)
CCN(CC)S(=O)(=O)CCCC(C)(C)NC(=O)c1c(I)cccc1C(=O)Nc1ccc(C(F)(C(F)(F)F)C(F)(F)F)cc1C [1-201]	A (Mortality 100%)	A (Mortality 100%)	A (Mortality 100%)
Cc1cc(C(F)(C(F)(F)F)C(F)(F)F)ccc1NC(=O)c1cccc(I)c1C(=O)NC(C)(C)CS(=O)(=O)NCC[S+](C)[O-] (stereo not drawn) [1-82]	A (Mortality 100%)	A (Mortality 100%)	A (Mortality 100%)
C=CCNS(=O)(=O)CC(C)NC(=O)c1c(I)cccc1C(=O)Nc1ccc(C(F)(C(F)(F)F)C(F)(F)F)cc1C (stereo not drawn) [1-20]	A (Mortality 100%)	A (Mortality 100%)	A (Mortality 100%)
CCN(CC)S(=O)(=O)CC(C)(C)NC(=O)c1c(I)cccc1C(=O)Nc1ccc(C(C(F)(F)F)C(F)(F)F)cc1C [1-344]	A (Mortality 100%)	A (Mortality 100%)	A (Mortality 100%)
Cc1cc(C(F)(C(F)(F)F)C(F)(F)F)ccc1NC(=O)c1cccc(I)c1C(=O)NC(C)(C)CS(=O)(=O)N1CCS(=O)(=O)CC1 [1-60]	E (Mortality less than 50%)	A (Mortality 100%)	A (Mortality 100%)
Cc1cc(C(F)(C(F)(F)F)C(F)(F)F)ccc1NC(=O)c1cccc(I)c1C(=O)NC(C)CS(=O)(=O)NCCc1ccccc1 (stereo not drawn) [1-47]	A (Mortality 100%)	A (Mortality 100%)	A (Mortality 100%)
CCS(=O)(=O)CCNS(=O)(=O)CC(C)(C)NC(=O)c1c(I)cccc1C(=O)Nc1ccc(C(F)(F)C(F)(F)F)cc1C [1-309]	A (Mortality 100%)	A (Mortality 100%)	A (Mortality 100%)
Cc1cc(C(F)(C(F)(F)F)C(F)(F)F)ccc1NC(=O)c1cccc(I)c1C(=O)NC(C)CS(=O)(=O)NCc1cccc(C#N)c1 (stereo not drawn) [1-31]	A (Mortality 100%)	A (Mortality 100%)	A (Mortality 100%)
Cc1cc(C(C(F)(F)F)C(F)(F)F)ccc1NC(=O)c1cccc(I)c1C(=O)NC(C)(C)CS(=O)(=O)N1CCCC1 [1-345]	A (Mortality 100%)	A (Mortality 100%)	A (Mortality 100%)
Cc1cc(C(F)(F)C(F)(F)F)ccc1NC(=O)c1cccc(I)c1C(=O)NC(C)(C)CS(=O)(=O)NCCSc1ccccc1 [1-310]	A (Mortality 100%)	A (Mortality 100%)	A (Mortality 100%)
Cc1cc(C(F)(C(F)(F)F)C(F)(F)F)ccc1NC(=O)c1cccc(I)c1C(=O)NC(C)CS(=O)(=O)N1CCC(=O)CC1 (stereo not drawn) [1-67]	E (Mortality less than 50%)	E (Mortality less than 50%)	A (Mortality 100%)
Cc1cc(C(F)(C(F)(F)F)C(F)(F)F)ccc1NC(=O)c1cccc(I)c1C(=O)N[C@@H](C)CS(=O)(=O)NCc1ccccc1 [1-146]	A (Mortality 100%)	A (Mortality 100%)	A (Mortality 100%)
